Measured values reported in patent US8435544B2, “Ophthalmic compositions comprising calcineurin inhibitors or mTOR inhibitors” (Lux Biosciences, Inc., priority 2007, dated 2013).

Assays:
[1] = Ocular distribution and pharmacokinetics of 14C-voclosporin in NZW rabbits; assay type: in vivo, New Zealand White (NZW) rabbits; settings: for AUC / Cmax: bilateral ocular; for Cmax: Blood
Method: (§1) NZW rabbits (30 females/8 males) were used in a single dose (SD) and 7-day repeat dose (RD) study (see Table 38). DB rabbits (16 females) were used in a single dose study (see Table 39). […] Blood and ocular tissue radioactivity levels were assessed at designated time points via combustion followed by liquid scintillation counting.
(§2) At each sampling point, a t-test was used to compare the tissue concentrations within or between the two strains of rabbits. SigmaStat® 3.5 (Systat, Inc., San Jose, Calif.) was used for the statistical analyses (p<0.05). […] Pharmacokinetic analysis was performed using WinNonlin 5.2 (Pharsight, Corporation, Mountain View, Calif.). Cmax and Tmax, and where calculable AUC and t1/2, were reported.

[2] = Ocular distribution and pharmacokinetics of 14C-voclosporin in DB rabbits; assay type: in vivo, Dutch Belted (DB) rabbits
Method: as §1, §2

[3] = test system: canine keratoconjunctivitis sicca (KCS); test: Topical voclosporin clinical study in dogs with KCS; assay type: in vivo
From the text: The study covered assessment of tear production (as measured by the Schirmer Tear Test (STT)), the response of clinical observation of the cornea, and participating ophthalmologists' overall assessment of efficacy.
Dogs diagnosed with chronic (>3 months in duration) immune-mediated KCS were selected from the clinic populations of the North Carolina State Veterinary Teaching Hospital. Diagnosis of immune-mediated KCS was made by exclusion of other causes of KCS.
Physical and ophthalmic examinations were performed at 0, 7, 14, and 28 days.

[4] = topical mixed micellar composition

C=CC=CCC(C)C(O)C1C(=O)NC(CC)C(=O)N(C)CC(=O)N(C)C(CC(C)C)C(=O)NC(C(C)C)C(=O)N(C)C(CC(C)C)C(=O)NC(C)C(=O)NC(C)C(=O)N(C)C(CC(C)C)C(=O)N(C)C(CC(C)C)C(=O)N(C)C(C(C)C)C(=O)N1C (stereo not drawn) [^14C-voclosporin]
mortality, morbidity, clinical irritation ([1]; 35 μL of 0.2% 14C-voclosporin mixed micellar formulation, single or daily for 7 days, NZW and DB rabbits): No mortality, morbidity or evidence of clinical irritation | AUC ([1]; Aqueous Humor, repeat dose (RD, QD for 7 days), female NZW rabbits): 96 hr * ng eq./g | AUC ([1]; Aqueous Humor, single dose (SD), female NZW rabbits): 45 hr * ng eq./g | Cmax ([1]; repeat dose (RD, QD for 7 days), female NZW rabbits): BQL (Below Quantifiable Limit (<0.1 ng/mL)) | Cmax ([1]; single dose (SD), female NZW rabbits): BQL (Below Quantifiable Limit (<0.1 ng/mL)) | AUC ([1]; Choroid/Retina, repeat dose (RD, QD for 7 days), female NZW rabbits): 897 hr * ng eq./g | AUC ([1]; Choroid/Retina, single dose (SD), female NZW rabbits): 472 hr * ng eq./g | AUC ([1]; Cornea, repeat dose (RD, QD for 7 days), female NZW rabbits): 54624 hr * ng eq./g | AUC ([1]; Cornea, single dose (SD), female NZW rabbits): 23166 hr * ng eq./g | AUC ([1]; Iris/Ciliary Body, repeat dose (RD, QD for 7 days), female NZW rabbits): 1952 hr * ng eq./g | AUC ([1]; Iris/Ciliary Body, single dose (SD), female NZW rabbits): 382 hr * ng eq./g | AUC ([1]; Lacrimal Gland, repeat dose (RD, QD for 7 days), female NZW rabbits): 1109 hr * ng eq./g | AUC ([1]; Lacrimal Gland, single dose (SD), female NZW rabbits): 416 hr * ng eq./g | AUC ([1]; Lens, repeat dose (RD, QD for 7 days), female NZW rabbits): 356 hr * ng eq./g | AUC ([1]; Lens, single dose (SD), female NZW rabbits): 47 hr * ng eq./g | AUC ([1]; Lower Bulbar Conjunctiva, repeat dose (RD, QD for 7 days), female NZW rabbits): 16585 hr * ng eq./g | AUC ([1]; Lower Bulbar Conjunctiva, single dose (SD), female NZW rabbits): 12029 hr * ng eq./g | AUC ([1]; Lower Eyelid, repeat dose (RD, QD for 7 days), female NZW rabbits): 358791 hr * ng eq./g | AUC ([1]; Lower Eyelid, single dose (SD), female NZW rabbits): 207630 hr * ng eq./g | AUC ([1]; Nictitating Membrane, repeat dose (RD, QD for 7 days), female NZW rabbits): 15964 hr * ng eq./g | AUC ([1]; Nictitating Membrane, single dose (SD), female NZW rabbits): 12135 hr * ng eq./g | AUC ([1]; Optic Nerve, repeat dose (RD, QD for 7 days), female NZW rabbits): 1805 hr * ng eq./g | AUC ([1]; Optic Nerve, single dose (SD), female NZW rabbits): 569 hr * ng eq./g | AUC ([1]; Sclera, repeat dose (RD, QD for 7 days), female NZW rabbits): 3825 hr * ng eq./g | AUC ([1]; Sclera, single dose (SD), female NZW rabbits): 2646 hr * ng eq./g | AUC ([1]; Submandibular Lymph Node, repeat dose (RD, QD for 7 days), female NZW rabbits): 1190 hr * ng eq./g | AUC ([1]; Submandibular Lymph Node, single dose (SD), female NZW rabbits): 893 hr * ng eq./g | AUC ([1]; Tear, repeat dose (RD, QD for 7 days), female NZW rabbits): 230878 hr * ng eq./g | AUC ([1]; Tear, single dose (SD), female NZW rabbits): 168259 hr * ng eq./g | AUC ([1]; Upper Bulbar Conjunctiva, repeat dose (RD, QD for 7 days), female NZW rabbits): 19944 hr * ng eq./g | AUC ([1]; Upper Bulbar Conjunctiva, single dose (SD), female NZW rabbits): 14782 hr * ng eq./g | AUC ([1]; Upper Eyelid, repeat dose (RD, QD for 7 days), female NZW rabbits): 98656 hr * ng eq./g | AUC ([1]; Upper Eyelid, single dose (SD), female NZW rabbits): 114651 hr * ng eq./g | AUC ([1]; Vitreous Humor, repeat dose (RD, QD for 7 days), female NZW rabbits): 23 hr * ng eq./g | AUC ([1]; Vitreous Humor, single dose (SD), female NZW rabbits): 27 hr * ng eq./g | concentrations in remaining ocular tissues ([1]; after a single dose): 20-223 ng eq/g tissue | lowest concentrations of radioactivity in ocular tissues ([1]; after a single dose, aqueous and vitreous humor, and the lens): 1-11 ng eq/g tissue | highest concentrations of radioactivity in ocular tissues ([1]; after a single dose, eyelids, conjunctiva, cornea, nictitating membrane and tears): > 1 mg eq/g tissue | Blood levels ([1]; after ocular application): at the lower limit of quantification (LLOQ) | concentrations of radioactivity in all ocular tissues except lens, aqueous humor, vitreous humor ([1]; after single and repeat ocular applications): ≥ 10 ng eq/g tissue | blood radioactivity ([1]; all but one blood sample below LLOQ): < 3.06 ng eq/mL | concentrations in target tissues (conjunctiva, cornea, lacrimal gland) at 24 hours ([1]; once daily ocular applications for 7 days): remained at therapeutic levels even at the 24-hour mark | change in t1/2 on repeat dosing ([1]; repeat dosing up to 7 days, lower bulbar conjunctiva, nictitating membrane, upper bulbar conjunctiva): no apparent change | levels in all ocular tissues except aqueous/vitreous humor and lens ([1]; single dose administration): higher than 10 ng equivalent drug/gram tissue | distribution to the contralateral, non-treated eye ([1]; unilateral dosing): minimal distribution | AUC ([2]; Aqueous Humor, single dose, bilateral ocular, female DB rabbits): 56 hr * ng eq./g | Cmax ([2]; Blood, single dose, bilateral ocular, female DB rabbits): BQL (Below Quantifiable Limit (<0.1 ng/mL)) | AUC ([2]; Choroid/Retina, single dose, bilateral ocular, female DB rabbits): 92 hr * ng eq./g | AUC ([2]; Cornea, single dose, bilateral ocular, female DB rabbits): 27844 hr * ng eq./g | AUC ([2]; Iris/Ciliary Body, single dose, bilateral ocular, female DB rabbits): 541 hr * ng eq./g | AUC ([2]; Lacrimal Gland, single dose, bilateral ocular, female DB rabbits): 335 hr * ng eq./g | AUC ([2]; Lens, single dose, bilateral ocular, female DB rabbits): 26 hr * ng eq./g | AUC ([2]; Lower Bulbar Conjunctiva, single dose, bilateral ocular, female DB rabbits): 13107 hr * ng eq./g | AUC ([2]; Lower Eyelid, single dose, bilateral ocular, female DB rabbits): 512473 hr * ng eq./g | AUC ([2]; Nictitating Membrane, single dose, bilateral ocular, female DB rabbits): 13091 hr * ng eq./g | AUC ([2]; Optic Nerve, single dose, bilateral ocular, female DB rabbits): 1127 hr * ng eq./g | AUC ([2]; Sclera, single dose, bilateral ocular, female DB rabbits): 3502 hr * ng eq./g | AUC ([2]; Submandibular Lymph Node, single dose, bilateral ocular, female DB rabbits): 635 hr * ng eq./g | AUC ([2]; Tear, single dose, bilateral ocular, female DB rabbits): 262299 hr * ng eq./g | AUC ([2]; Upper Bulbar Conjunctiva, single dose, bilateral ocular, female DB rabbits): 14296 hr * ng eq./g | AUC ([2]; Upper Eyelid, single dose, bilateral ocular, female DB rabbits): 68063 hr * ng eq./g | AUC ([2]; Vitreous Humor, single dose, bilateral ocular, female DB rabbits): 16 hr * ng eq./g | ocular tissue concentrations (e.g., Cmax) versus NZW rabbits (melanin binding) ([2]; single dose to DB rabbits): not significantly different from NZW rabbits

C=C/C=C/C[C@@H](C)[C@@H](O)[C@H]1C(=O)N[C@@H](CC)C(=O)N(C)CC(=O)N(C)[C@@H](CC(C)C)C(=O)N[C@@H](C(C)C)C(=O)N(C)[C@@H](CC(C)C)C(=O)N[C@@H](C)C(=O)N[C@H](C)C(=O)N(C)[C@@H](CC(C)C)C(=O)N(C)[C@@H](CC(C)C)C(=O)N(C)[C@@H](C(C)C)C(=O)N1C [voclosporin, reference compound]
tissue accumulation ([1]; after multiple dosing): minimal tissue accumulation | tissue levels at 24 hours ([1]; single (1 day) topical dose, female NZW rabbits): Therapeutic levels of voclosporin were noticed even at the 24-hour mark | level in the choriod/retina [1, 4]: high levels | level in the vitreous humor [1, 4]: low levels | adverse effects ([3]; 30 days treatment period, 0.2 wt % voclosporin topically every 12 hours): No adverse effects were noted | maintenance of STT ([3]; dogs with KCS, 30 days): maintained the STT in these dogs for 30 days
